Assay results: US20260265244A1, “HETEROCYCLIC COMPOUNDS AS STING ANTAGONISTS” (Boehringer Ingelheim International GmbH, priority 2022, published 2026)

How the values were obtained:
human STING WT (R232) = target: T1, human STING WT (R232) (Homo sapiens, UniProt Q86WV6, H232R); assay: Human STING HTRF binding assay (competitive, Cisbio 64BDSTGPEG)
T1 construct: purchased Cisbio 64BDSTGPEG
How it was run: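 Competitive HTRF: 6His-tagged human STING WT R232 binding domain (residues 138-379) with anti-6His Cryptate antibody and d2-labeled STING ligand, 180 min at room temperature, 1% DMSO, 8 concentrations from 10 μM or 1 μM top in ~1:5 steps. HTRF ratios were calibrated to a cGAMP standard curve and IC50 obtained by 4-parameter logistic fit.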

[1] = tested on: STING inhibition in human whole blood (IFNα2α production); assay: Human whole blood assay (HWBA): cGAMP-stimulated IFNα2α production; format: cell-based; conditions: Homo sapiens
How it was run: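 Na-citrate human whole blood from ≥3 healthy donors, preincubated 60 min at room temperature with compound (8 concentrations, top 10 μM, ~1:5 steps, 0.1% DMSO), then stimulated with cGAMP and incubated 22 h at 37 °C. Plasma IFNα2α measured by MSD immunoassay; % control versus stimulated/unstimulated wells, IC50 by 4-parameter logistic fit.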

T1 sequence (Q86WV6 138-379 H232R): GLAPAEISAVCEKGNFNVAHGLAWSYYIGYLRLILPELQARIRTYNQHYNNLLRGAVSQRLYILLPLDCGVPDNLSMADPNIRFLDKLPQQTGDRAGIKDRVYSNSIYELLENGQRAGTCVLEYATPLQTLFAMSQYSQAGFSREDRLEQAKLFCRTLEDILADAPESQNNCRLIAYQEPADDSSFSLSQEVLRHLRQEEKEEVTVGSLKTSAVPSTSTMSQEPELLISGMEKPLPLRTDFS

| Structure (SMILES) | IC50 (human STING WT (R232)) [nM] | IC50 [1] [nM] |
| --- | --- | --- |
| Cc1c(C(C)C)c(-c2cccc3nn(C[C@H](O)c4ccccc4)cc23)nn1-c1cc2cn(C)nc2nc1CO [Example 106, (1R)-2-(4-{1-[6-(hydroxymethyl)-2-methyl-2H-pyrazolo[3,4-b]pyridin-5-yl]-5-methyl-4-(propan-2-yl)-1H-pyrazol-3-yl}-2H-indazol-2-yl)-1-phenylethan-1-ol] | 3.2 | 28 |
| CCc1nc2nn(C)cc2cc1-c1nc(-c2cccc3nn(C[C@H](F)c4ccccc4)cc23)c(C2CC2)n1C [Example 107, 4-(5-cyclopropyl-2-{6-ethyl-2-methyl-2H-pyrazolo[3,4-b]pyridin-5-yl}-1-methyl-1H-imidazol-4-yl)-2-[(2R)-2-fluoro-2-phenylethyl]-2H-indazole] | 3.8 | 31 |
| Cc1nc2nn(C)cc2cc1-n1nc(-c2cccc3nn(C[C@H](OCC(N)=O)c4ccccc4)cc23)c(C(C)C)c1C [Example 108, 2-[(1R) -2-[4-(1-{2,6-dimethyl-2H-pyrazolo[3,4-b]pyridin-5-yl}-5-methyl-4-(propan-2-yl)-1H-pyrazol-3-yl)-2H-indazol-2-yl]-1-phenylethoxy]acetamide] | 5.8 | 38 |
| CC(C)c1c(-c2cccc3nn(C[C@H](O)c4ccccc4)cc23)nc(-c2cc3cn(C)nc3cc2OC(F)(F)F)n1C [Example 109, (1R)-2-(4-{1-methyl-2-[2-methyl-6-(trifluoromethoxy)-2H-indazol-5-yl]-5-(propan-2-yl)-1H-imidazol-4-yl}-2H-indazol-2-yl)-1-phenylethan-1-ol] | 18.8 | 78 |
| Cn1cc2cc(-c3nc(-c4cccc5nn(C[C@H](O)c6ccccc6)cc45)c(C4CC4)n3C)c(C3CC3(F)F)nc2n1 (stereo partly drawn) [Example 110, (1R)-2-(4-{5-cyclopropyl-2-[6-(2,2-difluorocyclopropyl)-2-methyl-2H-pyrazolo[3,4-b]pyridin-5-yl]-1-methyl-1H-imidazol-4-yl}-2H-indazol-2-yl)-1-phenylethan-1-ol] | 8.3 | 85 |
| Cc1c(C(C)C)c(-c2cccc3nn(C[C@H](O)c4ccccc4)cc23)nn1-c1cc2cn(C)nc2nc1C1CCCN1 (stereo partly drawn) [Example 111, (1R)-2-(4-{5-Methyl-1-[2-methyl-6-(pyrrolidin-2-yl)-2H-pyrazolo[3,4-b]pyridin-5-yl]-4-(propan-2-yl)-1H-pyrazol-3-yl}-2H-indazol-2-yl)-1-phenylethan-1-ol] | 25.2 | 750 |
| Cc1c(C(C)C)c(-c2cccc3nn(C[C@H](O)c4ccccc4)cc23)nn1-c1cc2cn(C)nc2nc1CN(C)C [Example 112] | 31.7 | 170 |
| Cc1c(C(C)C)c(-c2cccc3nn(C[C@H](O)c4ccccc4)cc23)nn1-c1cc2cn(C)nc2nc1C(C)(C)C [Example 113, (1R)-2-[4-(1-{6-tert-butyl-2-methyl-2H-pyrazolo[3,4-b]pyridin-5-yl}-5-methyl-4-(propan-2-yl)-1 H-pyrazol-3-yl)-2H-indazol-2-yl]-1-phenylethan-1-ol] | 62.8 | 1200 |
